Test results reported in ChEMBL document CHEMBL1201862, “PubChem BioAssay data set” (2004).
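A five-concentration, 48-hour dose response in 96-well plates underlies each endpoint, interpolated linearly between surrounding concentrations. GI50 marks 50% less growth.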 Active and inactive are the calls of the source. No stated cut-off is given here; in the data, active = GI50 up to about 1.1 µM and inactive = higher.

Tests used:
Assay in all cases: DTP human tumour cell line panel, 48 h
A498 = test system: A498
A549 = test system: A549
CCRF-CEM = test system: CCRF-CEM
EKVX = test system: EKVX
HCC 2998 = test system: HCC 2998
HCT-15 = test system: HCT-15
HL-60 = test system: HL-60
HT-29 = test system: HT-29
M14 = test system: M14
MOLT-4 = test system: MOLT-4
NCI-H460 = test system: NCI-H460
OVCAR-8 = test system: OVCAR-8
SF-295 = test system: SF-295
SK-MEL-28 = test system: SK-MEL-28
SK-MEL-2 = test system: SK-MEL-2
SK-OV-3 = test system: SK-OV-3
NCI-H226 = test system: NCI-H226

O=C(O)/C(=C/C=C/c1ccccc1)c1csc(-c2nc(/C(=C\C=C\c3ccccc3)C(=O)O)cs2)n1
GI50 (A498): 68.2 µM (inactive) | GI50 (A549): 43.8 µM (inactive) | GI50 (CCRF-CEM): 19.7 µM (inactive) | GI50 (EKVX): > 100 µM (inactive) | GI50 (HCC 2998): 20.1 µM (inactive) | GI50 (HCT-15): 23.4 µM | GI50 (HL-60): 17.5 µM (inactive) | GI50 (HT-29): 38.2 µM (inactive) | GI50 (M14): 22.9 µM (inactive) | GI50 (MOLT-4): 1.69 µM (inactive) | GI50 (NCI-H460): 40.8 µM (inactive) | GI50 (OVCAR-8): 44.8 µM (inactive) | GI50 (SF-295): 31.6 µM (inactive) | GI50 (SK-MEL-28): 33 µM (inactive) | GI50 (SK-MEL-2): 17.4 µM (inactive) | GI50 (SK-OV-3): 57.3 µM (inactive)

CC(=O)O[C@H]1CC[C@@]2(C)C(=CC[C@@H]3C2CC[C@]2(C)Nc4oncc4CC32)C1 (some centres not stated)
GI50 (A498): 40.6 µM (inactive) | GI50 (A549): 28.4 µM (inactive) | GI50 (CCRF-CEM): 4.85 µM (inactive) | GI50 (EKVX): > 100 µM (inactive) | GI50 (HCC 2998): > 100 µM (inactive) | GI50 (HCT-15): 33 µM | GI50 (HL-60): 11.7 µM (inactive) | GI50 (HT-29): 30.1 µM (inactive) | GI50 (M14): 31.8 µM (inactive) | GI50 (MOLT-4): 10.7 µM (inactive) | GI50 (NCI-H226): 15 µM (inactive) | GI50 (NCI-H460): 20.3 µM (inactive) | GI50 (OVCAR-8): 34.6 µM (inactive) | GI50 (SF-295): 32.6 µM (inactive) | GI50 (SK-MEL-28): 37.2 µM (inactive) | GI50 (SK-MEL-2): 44.5 µM (inactive) | GI50 (SK-OV-3): 96.6 µM (inactive)

COc1cccc(C2=NC(C(C)C)CO2)c1OC (configuration not stated)
GI50 (A498): > 100 µM (inactive) | GI50 (A549): > 100 µM (inactive) | GI50 (CCRF-CEM): > 100 µM (inactive) | GI50 (EKVX): > 100 µM (inactive) | GI50 (HCC 2998): > 100 µM (inactive) | GI50 (HCT-15): > 100 µM | GI50 (HL-60): > 100 µM (inactive) | GI50 (HT-29): > 100 µM (inactive) | GI50 (M14): > 100 µM (inactive) | GI50 (MOLT-4): > 100 µM (inactive) | GI50 (NCI-H226): > 100 µM (inactive) | GI50 (NCI-H460): > 100 µM (inactive) | GI50 (OVCAR-8): > 100 µM (inactive) | GI50 (SF-295): > 100 µM (inactive) | GI50 (SK-MEL-28): > 100 µM (inactive) | GI50 (SK-MEL-2): > 100 µM (inactive) | GI50 (SK-OV-3): > 100 µM (inactive)

Cn1cc2ccccc2c1-c1nc(F)nc(Oc2ccc3c(c2)CC[C@@H]2C3CC[C@@]3(C)C2C[C@H](O)[C@@H]3O)n1 (some centres not stated)
GI50 (A498): 27.3 µM (inactive) | GI50 (A549): 18.6 µM (inactive) | GI50 (CCRF-CEM): 2.66 µM (inactive) | GI50 (EKVX): 17.7 µM (inactive) | GI50 (HCC 2998): 15.4 µM (inactive) | GI50 (HCT-15): 12.2 µM | GI50 (HL-60): 22.4 µM (inactive) | GI50 (HT-29): 19.3 µM (inactive) | GI50 (M14): 15.9 µM (inactive) | GI50 (MOLT-4): 5.43 µM (inactive) | GI50 (NCI-H460): 30.9 µM (inactive) | GI50 (OVCAR-8): 15.8 µM (inactive) | GI50 (SF-295): 17.6 µM (inactive) | GI50 (SK-MEL-28): 19.7 µM (inactive) | GI50 (SK-MEL-2): 13 µM (inactive) | GI50 (SK-OV-3): 21.9 µM (inactive)

COC(=O)[C@H]1C2CC[C@@H]3C45C[C@@H](c6ccoc6)O[C@@H]4O[C@@H](O2)C31CCC5C (some centres not stated)
GI50 (A498): > 100 µM (inactive) | GI50 (A549): > 100 µM (inactive) | GI50 (CCRF-CEM): 56.4 µM (inactive) | GI50 (EKVX): 92.3 µM (inactive) | GI50 (HCC 2998): 95.9 µM (inactive) | GI50 (HCT-15): 86.3 µM | GI50 (HL-60): > 100 µM (inactive) | GI50 (HT-29): > 100 µM (inactive) | GI50 (M14): > 100 µM (inactive) | GI50 (MOLT-4): 69.7 µM (inactive) | GI50 (NCI-H226): 76.7 µM (inactive) | GI50 (NCI-H460): > 100 µM (inactive) | GI50 (OVCAR-8): > 100 µM (inactive) | GI50 (SF-295): 97.5 µM (inactive) | GI50 (SK-MEL-2): 71.1 µM (inactive) | GI50 (SK-OV-3): > 100 µM (inactive)

C[C@]12CCc3nonc3C1CC[C@@H]1C2CC[C@@]2(C)C1CC[C@@H]2O (some centres not stated)
GI50 (A498): > 100 µM (inactive) | GI50 (A549): > 100 µM (inactive) | GI50 (CCRF-CEM): > 100 µM (inactive) | GI50 (EKVX): > 100 µM (inactive) | GI50 (HCC 2998): > 100 µM (inactive) | GI50 (HCT-15): > 100 µM | GI50 (HL-60): > 100 µM (inactive) | GI50 (HT-29): > 100 µM (inactive) | GI50 (M14): > 100 µM (inactive) | GI50 (MOLT-4): > 100 µM (inactive) | GI50 (NCI-H226): > 100 µM (inactive) | GI50 (NCI-H460): > 100 µM (inactive) | GI50 (OVCAR-8): > 100 µM (inactive) | GI50 (SF-295): > 100 µM (inactive) | GI50 (SK-MEL-28): > 100 µM (inactive) | GI50 (SK-MEL-2): > 100 µM (inactive) | GI50 (SK-OV-3): > 100 µM (inactive)

CN(/N=C/c1ccnc2ccccc12)c1c([N+](=O)[O-])cc([N+](=O)[O-])cc1[N+](=O)[O-]
GI50 (A498): 48.8 µM (inactive) | GI50 (A549): 94.8 µM (inactive) | GI50 (CCRF-CEM): 18.3 µM (inactive) | GI50 (EKVX): 47.3 µM (inactive) | GI50 (HCC 2998): > 100 µM (inactive) | GI50 (HCT-15): 44.5 µM | GI50 (HL-60): 22.4 µM (inactive) | GI50 (HT-29): > 100 µM (inactive) | GI50 (M14): 43.3 µM (inactive) | GI50 (MOLT-4): 28.1 µM (inactive) | GI50 (NCI-H226): 71.4 µM (inactive) | GI50 (NCI-H460): > 100 µM (inactive) | GI50 (OVCAR-8): 98.2 µM (inactive) | GI50 (SF-295): 76.9 µM (inactive) | GI50 (SK-MEL-28): 60.5 µM (inactive) | GI50 (SK-MEL-2): 24.4 µM (inactive) | GI50 (SK-OV-3): > 100 µM (inactive)

NC(=O)c1ccccc1NC(=O)C(=O)Cc1nc2ccccc2nc1O
GI50 (A498): > 100 µM (inactive) | GI50 (A549): > 100 µM (inactive) | GI50 (CCRF-CEM): > 100 µM (inactive) | GI50 (EKVX): > 100 µM (inactive) | GI50 (HCC 2998): > 100 µM (inactive) | GI50 (HCT-15): > 100 µM | GI50 (HL-60): > 100 µM (inactive) | GI50 (M14): > 100 µM (inactive) | GI50 (MOLT-4): > 100 µM (inactive) | GI50 (NCI-H460): > 100 µM (inactive) | GI50 (OVCAR-8): 50 µM (inactive) | GI50 (SF-295): > 100 µM (inactive) | GI50 (SK-MEL-28): > 100 µM (inactive) | GI50 (SK-MEL-2): > 100 µM (inactive) | GI50 (SK-OV-3): > 100 µM (inactive)

CC(C)C(NCc1c2ccccc2[n+]([O-])c2ccccc12)C(=O)O (configuration not stated)
GI50 (A498): > 100 µM (inactive) | GI50 (A549): > 100 µM (inactive) | GI50 (CCRF-CEM): 35.3 µM (inactive) | GI50 (EKVX): > 100 µM (inactive) | GI50 (HCC 2998): > 100 µM (inactive) | GI50 (HCT-15): 31 µM | GI50 (HL-60): 30.3 µM (inactive) | GI50 (HT-29): 20 µM (inactive) | GI50 (M14): > 100 µM (inactive) | GI50 (MOLT-4): 26.2 µM (inactive) | GI50 (NCI-H226): 35.4 µM (inactive) | GI50 (NCI-H460): 68.9 µM (inactive) | GI50 (OVCAR-8): 70 µM (inactive) | GI50 (SF-295): > 100 µM (inactive) | GI50 (SK-MEL-28): 44.7 µM (inactive) | GI50 (SK-MEL-2): 81.1 µM (inactive) | GI50 (SK-OV-3): > 100 µM (inactive)

C=CCCCCCCCC(O)C1C[C@H](O)C(CCCCC)O1 (some centres not stated)
GI50 (A498): 19.8 µM (inactive) | GI50 (A549): 19.4 µM (inactive) | GI50 (CCRF-CEM): 19.3 µM (inactive) | GI50 (EKVX): 19.5 µM (inactive) | GI50 (HCC 2998): 17.9 µM (inactive) | GI50 (HCT-15): 21.5 µM | GI50 (HL-60): 17.5 µM (inactive) | GI50 (HT-29): 18.6 µM (inactive) | GI50 (M14): 17.7 µM (inactive) | GI50 (MOLT-4): 17.7 µM (inactive) | GI50 (NCI-H226): 13.4 µM (inactive) | GI50 (NCI-H460): 18.9 µM (inactive) | GI50 (OVCAR-8): 19.9 µM (inactive) | GI50 (SF-295): 17.6 µM (inactive) | GI50 (SK-MEL-28): 17.9 µM (inactive) | GI50 (SK-OV-3): 20.4 µM (inactive)

CCCCCN(CCCCC)C(=O)[C@H](CCC(=O)OCc1ccccc1)NC(=O)c1cc2ccccc2[nH]1
GI50 (A498): > 100 µM (inactive) | GI50 (A549): > 100 µM (inactive) | GI50 (CCRF-CEM): > 100 µM (inactive) | GI50 (EKVX): > 100 µM (inactive) | GI50 (HCC 2998): > 100 µM (inactive) | GI50 (HCT-15): > 100 µM | GI50 (HL-60): > 100 µM (inactive) | GI50 (HT-29): > 100 µM (inactive) | GI50 (M14): > 100 µM (inactive) | GI50 (MOLT-4): > 100 µM (inactive) | GI50 (NCI-H226): > 100 µM (inactive) | GI50 (NCI-H460): > 100 µM (inactive) | GI50 (OVCAR-8): > 100 µM (inactive) | GI50 (SF-295): > 100 µM (inactive) | GI50 (SK-MEL-28): > 100 µM (inactive) | GI50 (SK-MEL-2): > 100 µM (inactive) | GI50 (SK-OV-3): > 100 µM (inactive)

Cc1ccc(NC(=O)CCC(=O)C2CC(=O)CCC2=O)cc1C (configuration not stated)
GI50 (A549): > 100 µM (inactive) | GI50 (CCRF-CEM): > 100 µM (inactive) | GI50 (EKVX): > 100 µM (inactive) | GI50 (HCC 2998): > 100 µM (inactive) | GI50 (HCT-15): > 100 µM | GI50 (HL-60): > 100 µM (inactive) | GI50 (HT-29): > 100 µM (inactive) | GI50 (M14): > 100 µM (inactive) | GI50 (MOLT-4): > 100 µM (inactive) | GI50 (NCI-H226): > 100 µM (inactive) | GI50 (NCI-H460): > 100 µM (inactive) | GI50 (OVCAR-8): > 100 µM (inactive) | GI50 (SF-295): > 100 µM (inactive) | GI50 (SK-MEL-28): > 100 µM (inactive) | GI50 (SK-MEL-2): > 100 µM (inactive) | GI50 (SK-OV-3): > 100 µM (inactive)
